Relative viability data for 1 cell line are collected here from the supplement of paper PMC10307832.

Common to all, as to assay: relative viability (nuclei count vs DMSO), 5 days (fraction); higher = more cells survive
Compound in the assay “Carboplatin + Dasatinib”: C1CC(C1)(C(=O)O)C(=O)O.[NH2-].[NH2-].[Pt+2] [Carboplatin] + Cc1nc(Nc2ncc(C(=O)Nc3c(C)cccc3Cl)s2)cc(N2CCN(CCO)CC2)n1 [Dasatinib] (partner 0.075 µM)
The method in brief: (§1)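 Values are medians from duplicate plates. Each reflects relative viability, defined as the nuclei count of treated wells over that of vehicle wells. Lung cancer cell lines in 1536-well plates were pin-tool dosed one day after seeding with one drug alone or with a fixed anchor-drug dose plus five library-drug doses (not always all listed) in √10 steps, then fixed, stained and imaged at 4× after 5 days.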

Compound in the assay “GSK126 + Vorinostat”: CC[C@H](C)N1C=C(C2=C(C=C(C=C21)C3=CN=C(C=C3)N4CCNCC4)C(=O)NCC5=C(C=C(NC5=O)C)C)C [GSK126] + O=C(CCCCCCC(=O)Nc1ccccc1)NO [Vorinostat] (partner 1 µM)
The essentials: as §1

Compound in the assay “GSK126 + Tozasertib”: CC[C@H](C)N1C=C(C2=C(C=C(C=C21)C3=CN=C(C=C3)N4CCNCC4)C(=O)NCC5=C(C=C(NC5=O)C)C)C [GSK126] + Cc1cc(Nc2cc(N3CCN(C)CC3)nc(Sc3ccc(NC(=O)C4CC4)cc3)n2)n[nH]1 [Tozasertib] (partner 0.1 µM)
The method in brief: as §1

Compound in the assay “GSK126 + Olaparib”: CC[C@H](C)N1C=C(C2=C(C=C(C=C21)C3=CN=C(C=C3)N4CCNCC4)C(=O)NCC5=C(C=C(NC5=O)C)C)C [GSK126] + O=C(c1cc(Cc2n[nH]c(=O)c3ccccc23)ccc1F)N1CCN(C(=O)C2CC2)CC1 [Olaparib] (partner 8 µM)
The essentials:
as §1

UMC-11: the relative viability in the assay with Carboplatin + Dasatinib (first compound 0.08 µM) came out at 0.515; with Carboplatin + Dasatinib (first compound 0.253 µM) it was 0.501; with Carboplatin + Dasatinib (first compound 0.8 µM), 0.461; in the assay with Carboplatin + Dasatinib (first compound 2.53 µM), 0.502; with Carboplatin + Dasatinib (first compound 8 µM), 0.491; with GSK126 + Vorinostat (first compound 0.08 µM), 0.409. For the same cell line, the relative viability with GSK126 + Vorinostat (first compound 0.253 µM) was 0.381; with GSK126 + Vorinostat (first compound 0.8 µM), 0.356; with GSK126 + Vorinostat (first compound 2.53 µM) it was 0.459; in the assay with GSK126 + Vorinostat (first compound 8 µM) it was 0.341; with GSK126 + Tozasertib (first compound 0.08 µM) it was 0.205; in the assay with GSK126 + Tozasertib (first compound 0.253 µM), 0.209. The relative viability with GSK126 + Tozasertib (first compound 0.8 µM) was found to be 0.197; in the assay with GSK126 + Tozasertib (first compound 2.53 µM), 0.188; with GSK126 + Tozasertib (first compound 8 µM), 0.199; in the assay with GSK126 + Olaparib (first compound 0.08 µM), 0.345; in the assay with GSK126 + Olaparib (first compound 0.253 µM), 0.364; with GSK126 + Olaparib (first compound 0.8 µM) it was 0.394. Also, the relative viability in the assay with GSK126 + Olaparib (first compound 2.53 µM) turned out to be 0.376; with GSK126 + Olaparib (first compound 8 µM), 0.361.
